Our source for the IC50 and MIC values is ChEMBL document CHEMBL4732219, “Synthesis and evaluation of cyclopentane-based muraymycin analogs targeting MraY” (Eur J Med Chem, 2021).

Converted amounts (≈) assume the structure as drawn.

In assay [1] the target is T1, Phospho-N-acetylmuramoyl-pentapeptide-transferase (Aquifex aeolicus (strain VF5), UniProt O66465).
T1 sequence (O66465 whole entry): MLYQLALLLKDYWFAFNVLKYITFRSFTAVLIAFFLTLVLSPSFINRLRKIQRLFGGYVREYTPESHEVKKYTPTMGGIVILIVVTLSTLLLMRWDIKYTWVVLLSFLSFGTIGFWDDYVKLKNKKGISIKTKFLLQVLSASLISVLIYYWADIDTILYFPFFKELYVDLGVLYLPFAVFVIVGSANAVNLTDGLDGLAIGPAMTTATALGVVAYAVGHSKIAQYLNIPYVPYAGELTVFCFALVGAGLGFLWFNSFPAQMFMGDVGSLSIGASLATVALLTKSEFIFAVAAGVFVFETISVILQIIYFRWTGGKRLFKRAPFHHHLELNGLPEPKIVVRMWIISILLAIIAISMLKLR
The assay is described as follows: Inhibition of Aquifex aeolicus MraY using UDP-MurNAc-pentapeptide as substrate measured after 5 mins by UMP-Glo glycosyltransferase assay.

For a further assay, the system named is Staphylococcus aureus. The assay is described as follows: Antibacterial activity against Staphylococcus aureus SA113 assessed as growth inhibition. The class given is functional.

Consider `CCCCCCCCCCCCCCCCC(=O)N[C@@H](CCCNC(=N)N)C(=O)NCCCN[C@H](C(=O)OC)[C@H](O[C@@H]1O[C@H](CN)[C@@H](O)[C@H]1O)[C@@H]1CC[C@H](n2ccc(=O)[nH]c2=O)C1`, for which the IC50 in assay [1] stood at 75 µM. Besides, the minimal inhibitory concentration (MIC) with Staphylococcus aureus came out at 54 µg/mL (≈ 60.4 µM).
As for `CC(C)(C)OC(=O)[C@@H](NC(=O)OCc1ccccc1)[C@H](O[C@@H]1O[C@H](CN)[C@@H](O)[C@H]1O)[C@@H]1CC[C@H](n2ccc(=O)[nH]c2=O)C1`, in assay [1], the IC50 was found to be 340 µM.
Same read-out and setting: next, `NC[C@H]1O[C@@H](O[C@H]([C@@H]2CC[C@H](n3ccc(=O)[nH]c3=O)C2)[C@H](NC(=O)OCc2ccccc2)C(=O)O)[C@H](O)[C@@H]1O`: 500 µM.
